Measured values as given in ChEMBL document CHEMBL1142161, “Hepatitis C virus (HCV) NS5B nonnucleoside inhibitors specifically block single-stranded viral RNA synthesis catalyzed by HCV replication complexes in vitro” (Antimicrob Agents Chemother, 2007).
pEC50: −log10 of the molar value. The source made the active and inactive calls. No cut-off for these calls is given here.

Experiments:
Hepacivirus hominis = assay: Inhibition of HCV ssRNA synthesis by crude replicase complexes prepared from Huh-9-13 cells; format: functional
Homo sapiens = species: Homo sapiens; assay: (§1) Inhibition of replication in Huh-9-13 cells containing Wild type HCV replicons after 72 hrs; format: functional, cell-based
[1] = Inhibition of replication in M414T cells containing mutant HCV replicons after 72 hrs; format: functional, cell-based, Homo sapiens
[2] = as §1; format: functional, cell-based; settings: Homo sapiens

Structure (SMILES) | Activity (Hepacivirus hominis) | Activity (Homo sapiens) | pEC50 [1] | pEC50 [2]
O=C(N[C@@H](Cc1c[nH]c2ccccc12)C(=O)O)c1ccc2c(c1)nc(-c1ccoc1)n2C1CCCCC1 | Dose-dependent effect | inactive |  | 
CC(C)CCn1c(=O)c(C2=NS(=O)(=O)c3ccccc3N2)c(O)c2ccccc21 | Dose-dependent effect |  | < 4.50 | 6.05
